Results published in paper PMC9572942, “The Discovery of Small Allosteric and Active Site Inhibitors of the SARS-CoV-2 Main Protease via Structure-Based Virtual Screening and Biological Evaluation” (Molecules, 2022).
Values joined by “and” are separate entries in the source; they are usually repeats but may differ in a detail not shown here. Equal values may be shown once. “Also recorded” adds a separate entry of the source.

Assays:
Type in all cases: biochemical
[1] = target: T1, SARS-CoV-2 M^pro enzyme (Severe acute respiratory syndrome coronavirus 2, UniProt P0DTD1); assay: FRET-based enzyme assay and IC50 determination; settings: for inhibition at 100 µM: 100 μM compound, in Figure 5; for inhibition at 200 µM: 200 μM compound; for IC50: 4.6 μM enzyme, HEPES pH 6.5, read-out: IC50
[2] = target: T1, SARS-CoV-2 M^pro enzyme; assay: Promiscuity tests (pre-incubation, 10-fold enzyme concentration, BSA buffer); settings: 100 μM compound
[3] = target: T1, SARS-CoV-2 M^pro enzyme; assay: Inhibition kinetic study (Lineweaver–Burk, FRET assay); settings: for inhibition mechanism: Lineweaver–Burk plot; for Ki: from slope of Lineweaver–Burk curves vs. inhibitor concentration, read-out: Ki
[4] = 4.6 μM enzyme, read-out: Inhibition % at 100 μM at 4.6 μM enzyme concentration
[5] = 46 μM enzyme (10-fold), read-out: Inhibition % at 100 μM at 46 μM enzyme concentration
[6] = 15 min pre-incubation with enzyme, read-out: Inhibition % at 100 μM with 15 min pre-incubation
[7] = no BSA, read-out: Inhibition % at 100 μM without BSA in assay buffer
[8] = pre-incubation test, read-out: Inhibition % at 100 μM without pre-incubation
[9] = read-out: Inhibition % at 100 μM with BSA in assay buffer, BSA in 20 mM HEPES pH 6.5, read-out: Inhibition % at 100 μM with 1g/mL BSA in assay buffer

Question: What does the source list for O=C(NC1CCNCC1)c1[nH]ncc1NC(=O)c1c(Cl)cccc1Cl [AT7519, reference compound]?
Answer: inhibition at 100 µM [1]: 8%; inhibition at 200 µM [1]: 18%

Question: For O=C(CSc1cnc2ccccc2n1)NC1CCCC1 [CB03], which inhibition at 100 µM [2, 4] is on record?
Answer: 15%

Question: And the inhibition at 100 µM [2, 5]?
Answer: 13.1%

Question: And the inhibition at 100 µM [2, 6]?
Answer: 14.2%

Question: What about the inhibition at 100 µM [2, 7] of the same compound?
Answer: 15.5%

Question: And the inhibition at 100 µM [2, 8]?
Answer: 15.1%

Question: And the inhibition at 100 µM [2, 9]?
Answer: 17.3%

Question: And the inhibition mechanism [3]?
Answer: competitive mechanism

Question: With COC(=O)C1C(O)=C2C(=CC1C)Nc1ccccc1NC2c1ccc2ccccc2c1 (stereo not shown) [CD06] as the compound, how does the IC50 [1] read?
Answer: 226 ± 17.5 µM

Question: Which results are given for CN(CCCO)c1cc2c3c(cccc3n1)C(=O)c1ccccc1-2 [GR04]?
Answer: inhibition at 100 µM [2, 4]: 33.5%; inhibition at 100 µM [2, 5]: 33.9%; inhibition at 100 µM [2, 6]: 34.3%; inhibition at 100 µM [2, 7]: 33%; inhibition at 100 µM [2, 8]: 35.4%; inhibition at 100 µM [2, 9]: 35%; inhibition mechanism [3]: noncompetitive model; also recorded: noncompetitive inhibition mechanism; Ki [3]: 298 µM; IC50 [1]: 346 ± 10 µM; inhibition at 100 µM [1]: 35%; inhibition at 200 µM [1]: 61%

Question: What does the source list for CCCc1nc2c(o1)OC(N)=C(C#N)[C@H]2c1cccc(O)c1 [GR20]?
Answer: inhibition at 100 µM [2, 4]: 48.6%; inhibition at 100 µM [2, 5]: 48%; inhibition at 100 µM [2, 7]: 50%; inhibition at 100 µM [2, 9]: 51.4%; inhibition mechanism [3]: mix inhibition model; also recorded: mixed inhibition mode; Ki [3]: 89 µM; IC50 [1]: 92 µM and 91.8 µM
